Positions of bridges follow the written chain, without caps; N, C: chain ends. Non-standard residues stand in square brackets, D forms with d. Residues, ends and D or L forms follow the SMILES beside them. 2Nal = N[C@@H](Cc1ccc2ccccc2c1)C(=O)O; Lys(iPr) = CC(C)NCCCC[C@H](N)C(=O)O

In one data set the test system is WBC count. Particulars: ref [43], cited from earlier work.
In another data set the test system is leukocytes and HSCs. The settings on record: ref [12], [20], [24]; cited from earlier work. The text has this:
In addition to tumor microenvironments, SDF-1 is constitutively expressed at high levels in bone marrow and is an efficient chemotactic factor for immune cells including T-cells, B-cells, and monocytes. […] There are two major mechanisms involved in this function: down-regulation of cell surface CXCR4 by internalization or proteolysis, and antagonism via direct blockade of SDF-1/CXCR4 interaction.

For data set [1] the following is noted: ref [43]; cited from earlier work.
In another data set the test system is pancreatic cancer. The settings on record: mice with pancreatic cancer; ref [7]; cited from earlier work. From the text: (§1) Due to the critical role of SDF-1/CXCR4 interaction in immune cell retention and mobilization, CXCR4 inhibition may lead to T-cell infiltration and redistribution in tumor microenvironments.
The subject of the next data set is hepatic carcinoma models. The settings on record: ref [30]; cited from earlier work.
Excerpt: as §1

In the next data set the test system is ovarian cancer models. Particulars: ref [32]; cited from earlier work.
Excerpt: as §1

The conditions of data set [2]: 1- to 30-mg/day, patients with advanced cancer; ref [9]; cited from earlier work. The text has this:
We developed LY2624587, a fully humanized CXCR4 mAb that is among the first-in-class anti-CXCR4 mAbs developed, for the treatment of patients with cancer. […] A role for LY2624587 antibody in mobilizing HSCs and WBCs has not been previously reported. We also developed LY25 ...

In a further data set the target is T1, mouse CXCR4 (Mus musculus, UniProt P70658).
T1 construct: mouse lymphoma 2PK-3 cells that express endogenous mouse CXCR4; endogenous in cells; host or cells: 2PK-3 mouse lymphoma cells
T1 sequence (P70658 whole entry): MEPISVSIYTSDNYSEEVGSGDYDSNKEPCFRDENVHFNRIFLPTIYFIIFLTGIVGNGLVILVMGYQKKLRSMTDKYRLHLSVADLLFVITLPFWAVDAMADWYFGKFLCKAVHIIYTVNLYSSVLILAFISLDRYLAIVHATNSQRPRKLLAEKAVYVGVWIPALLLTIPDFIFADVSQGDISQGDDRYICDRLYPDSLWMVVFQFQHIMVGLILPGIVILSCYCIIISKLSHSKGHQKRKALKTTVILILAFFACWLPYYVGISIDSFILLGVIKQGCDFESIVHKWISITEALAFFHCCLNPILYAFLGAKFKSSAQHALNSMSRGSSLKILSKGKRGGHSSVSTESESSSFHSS
In words: SDF-1/CXCR4 binding assay, mouse lymphoma 2PK-3 cells. As to the method: (§2) Preclinical characterization of both agents was previously described. Interaction of SDF-1/CXCR4 was assayed in human leukemia CCRF-CEM cells expressing high levels of human CXCR4, MDA-MB-435 cells stably transfected with monkey CXCR4, and mouse 2PK-3 lymphoma cells expressing high levels of mouse CXCR4.
(§3) Figure 1 LY2510924 peptide and LY2624587 antibody inhibition of SDF-1/CXCR4 binding in human, monkey, and mouse cells LY2510924 (peptide antagonist) inhibits binding in (A) human, (B) monkey, and (C) mouse cells. LY2624587 (CXCR4 mAb) inhibits binding in (D) human, (E) monkey, and (F) mouse cells. Human cells = leukemia CCRF-CEM cells with high-level expression of human CXCR4, monkey cells = MDA-MB-435 cells stably transfected with monkey CXCR4, and mouse cells = 2PK-3 lymphoma cells with high-level expression of mouse CXCR4. Ki = inhibitor constant.
(§4) The SDF-1/CXCR4 binding assay used human leukemia CCRF-CEM cells that express endogenous CXCR4 and [125I]-labeled recombinant human SDF-1α (PeproTech EC Ltd., London, UK) as previously described. The same assay was conducted for breast cancer MDA-MB-435 cells transfected with monkey CXCR4 and mouse lymphoma 2PK-3 cells that express endogenous mouse CXCR4. Plates were counted in a 1450 Microbeta Liquid Scintillation and Luminescence Counter (Wallac) in SPA mode.

For another data set, the target named is T2, human CXCR4 (Homo sapiens, UniProt P61073).
T2 construct: human leukemia CCRF-CEM cells that express endogenous CXCR4; endogenous in cells; host or cells: CCRF-CEM human leukemia cells
T2 sequence (P61073 whole entry): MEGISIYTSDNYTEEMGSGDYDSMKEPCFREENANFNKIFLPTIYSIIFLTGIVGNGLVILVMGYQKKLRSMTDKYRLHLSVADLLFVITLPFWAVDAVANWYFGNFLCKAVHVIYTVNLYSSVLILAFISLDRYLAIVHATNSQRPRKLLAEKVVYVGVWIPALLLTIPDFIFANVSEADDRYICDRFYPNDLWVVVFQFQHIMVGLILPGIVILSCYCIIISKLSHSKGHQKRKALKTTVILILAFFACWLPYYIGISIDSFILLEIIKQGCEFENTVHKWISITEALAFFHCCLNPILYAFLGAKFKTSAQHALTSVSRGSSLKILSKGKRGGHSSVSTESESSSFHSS
In words: SDF-1/CXCR4 binding assay, [125I]-SDF-1α, human leukemia CCRF-CEM cells. As to the method:
as §2, §3, §4

In a further data set the target is T3, monkey CXCR4 (Macaca fascicularis, UniProt Q28474).
T3 construct: expressed in transfected cells; host or cells: MDA-MB-435 cells
T3 sequence (Q28474 whole entry): as the sequence (P61073 whole entry) above, with M24I, N35H, K38R, R146K, N176S counted along it
In words: SDF-1/CXCR4 binding assay, MDA-MB-435 cells transfected with monkey CXCR4. Particulars: MDA-MB-435 cells stably transfected with monkey CXCR4; SPA mode; read-out: IC50, inhibition of SDF-1 binding. How it is done: as §2, §3, §4

For data set [3], the system named is patients with multiple myeloma, peripheral leukocytes. The settings on record: ref [41]; cited from earlier work. The text has this: (§5) These distinct in vitro properties may be related to the differential mobilization of WBCs and HSCs in vivo, but the mechanism is not yet understood and these differences cannot fully explain why LY2624587 antibody induced only minimal changes in WBCs and HSCs in monkeys and humans. […] Weak immune cell mobilization by LY2624587 antibody may be a class phenomenon of mAb agents. Ano ...

In another data set the test system is hematologic malignancies. The settings on record: ref [11], [39]; cited from earlier work.
Excerpt: as §5

The subject of data set [4] is patients with chronic lymphocytic leukemia, normal lymphocytes. Particulars: ref [40]; cited from earlier work.
Excerpt: as §5

For `c1cc(CN2CCCNCCNCCCNCC2)ccc1CN1CCCNCCNCCCNCC1` [AMD3100], in the data set on WBC count, the “duration of single dose effect” value is on record as “appeared to last only a few hours”. Further, the “WBC count at 24 hours” value with WBC count (single dose, 24 hours) is recorded as “reduced to near baseline level at 24 hours”. For the same molecule, the “mobilization of WBCs including neutrophils and HSCs” value in the data set on leukocytes and HSCs was “mobilize both white blood cells (WBCs) including neutrophils and HSCs”. Moreover, the “safety on chronic dosing schedule” value in [1] is listed as “poses significant safety concerns due to compound-associated toxicity”. Further, in the data set with pancreatic cancer, the “T-cell accumulation near tumors” value is “rapid T-cell accumulation near tumors” and the “combination with anti–PD-L1 mAb, tumor cell elimination” value is reported as “synergistic with an anti–PD-L1 mAb to eliminate tumor cells”. Further, the “combination with anti–PD-1” value in the data set on hepatic carcinoma models is listed as “augmented anti–PD-1 combination therapy efficacy”. In the data set on ovarian cancer models, the “effect on intra-tumor regulatory T-cells” value is “selective reduction of intra-tumor regulatory T-cells” and the “effect on tumor apoptosis” value is “increased tumor apoptosis”.
As to `CC(C)NCCCC[C@H](NC(=O)[C@H]1CCC(=O)N[C@@H](Cc2ccccc2)C(=O)N[C@@H](Cc2ccc(O)cc2)C(=O)N[C@@H](CCCCNC(C)C)C(=O)N[C@H](CCCNC(=N)N)C(=O)N[C@@H](Cc2ccc3ccccc3c2)C(=O)NCC(=O)N1)C(N)=O` [LY2510924] (FY[Lys(iPr)][dR][2Nal]G[dE][Lys(iPr)]-NH2; lactam N-7), in [2], the “pharmacokinetic and safety profiles” value was “favorable pharmacokinetic and safety profiles”. Besides, the “IC50 difference, mouse versus human cells” value on mouse CXCR4 (mouse 2PK-3 vs human CCRF-CEM) is reported as 35 fold. The “IC50 difference, mouse versus monkey cells” value on mouse CXCR4 (mouse 2PK-3 vs monkey CXCR4 MDA-MB-435) came out at 29 fold. In addition, the IC50 on mouse CXCR4 (mouse lymphoma 2PK-3 cells, SPA mode, read-out: IC50, inhibition of SDF-1 binding) is 2.83 nM; on human CXCR4 (human leukemia CCRF-CEM cells, [125I]-labeled human SDF-1α, SPA mode, read-out: IC50, inhibition of SDF-1 binding) it was 0.0797 nM; at monkey CXCR4 it was 0.097 nM. For the same molecule, at human CXCR4, the affinity corresponds to a Ki of 0.0495 nM.
Take “BMS-936564/MDX-1338: CXCR4-specific mAb in clinical development”: in [3], the “duration of leukocyte increase” value is on record as “transient” and the “increase in peripheral leukocytes (median)” value is reported as 2 fold. Further, in the data set on hematologic malignancies, the “antitumor and pro-apoptotic functionality” value is “antitumor and pro-apoptotic functionality”. Further, the “increase in absolute number of normal lymphocytes” value in [4] was “no evidence of increase”.

In general, IC50 refers to the concentration at which inhibition is half-maximal. By Ki is commonly meant the dissociation constant of the complex between target and ligand, obtained from inhibition or displacement.

The values above are taken from article PMC5706900, “Distinct mobilization of leukocytes and hematopoietic stem cells by CXCR4 peptide antagonist LY2510924 and monoclonal antibody LY2624587” (Oncotarget, 2017).
